# System: A/Udorn/72 (H3N2) virus
# Experiment: Plaque assay in MDCK cells: EC50 by reduction of plaque number
# Format: cell-based, influenza virus
# Conditions: MDCK
row,Structure (SMILES),EC50
1,O=C1/C(=C/c2oc(-c3ccc(Cl)cc3)cc2CCCCCN2CCNCC2)SC(=S)N1C1CC2CCC1C2 (centres unmarked) [Compound 192],< 100 nM
2,O=C1/C(=C/c2cc3ccccc3o2)SC(=S)N1C1CC2CCC1C2 (centres unmarked) [Compound 217],< 100 nM
3,COc1cc(OC)cc(-c2cc(CCCNC(=O)[C@@H](N)CC(=O)O)c(/C=C3\SC(=S)N(C4CC5CCC4C5)C3=O)o2)c1 (some centres unmarked) [Compound 169],< 100 nM
4,Cn1c(-c2ccc(Cl)cc2)cc(CCCCCO)c1/C=C1\SC(=S)N(C2C3CC4CC(C3)CC2C4)C1=O (centres unmarked) [Compound 261],< 100 nM
5,COc1cccc(-c2c(C#CCCCOC(=O)[C@H](CC(N)=O)NC(=O)OC(C)(C)C)cc(/C=C3\SC(=S)N(C4CC5CCC4C5)C3=O)n2C)c1 (some centres unmarked) [Compound 271],< 100 nM
6,O=C1/C(=C/c2oc(-c3ccc(Cl)cc3)cc2CCCN2CCOCC2)SC(=S)N1C1CC2CCC1C2 (centres unmarked) [Compound 179],< 100 nM
7,O=C1/C(=C/c2oc(-c3cccc(Cl)c3)cc2CCCCCO)SC(=S)N1C1CC2CCC1C2 (centres unmarked) [Compound 345],< 100 nM
8,COc1cc(OC)cc(-c2cc(/C=C/C(=O)O)c(/C=C3\SC(=S)N(C4C5CC6CC(C5)CC4C6)C3=O)o2)c1 (centres unmarked) [Compound 131],< 100 nM
9,COc1ccc2c(O)c(-c3ccc(-c4ccc(/C=C5\SC(=S)N(C6CC7CCC6C7)C5=O)o4)cc3)c(=O)oc2c1 (centres unmarked) [Compound 227],< 100 nM
10,CC(C)(C)OC(=O)N[C@@H](CC(N)=O)C(=O)OCCCC#Cc1cc(-c2cccc(Cl)c2)sc1/C=C1\SC(=S)N(C2CC3CCC2C3)C1=O (some centres unmarked) [Compound 311],< 100 nM
11,O=C1/C(=C/c2[nH]c(-c3ccc(Cl)cc3)cc2CCCO)SC(=S)N1C1C2CC3CC(C2)CC1C3 (centres unmarked) [Compound 234],< 100 nM
12,CC(C)(C)OC(=O)N[C@@H](CC(N)=O)C(=O)N1CCN(CCCCCc2cc(-c3ccc(Cl)cc3)oc2/C=C2\SC(=S)N(C3C4CC5CC(C4)CC3C5)C2=O)CC1 (some centres unmarked) [Compound 373],< 100 nM
13,CC(C)(C)OC(=O)N[C@@H](CC(N)=O)C(=O)OCCCCCc1cc(-c2ccc(Cl)cc2)[nH]c1/C=C1\SC(=S)N(C2C3CC4CC(C3)CC2C4)C1=O (some centres unmarked) [Compound 254],< 100 nM
14,O=C1/C(=C/c2[nH]c(-c3ccc(Cl)cc3)cc2CCCO)SC(=S)N1C1CC2CCC1C2 (centres unmarked) [Compound 229],< 100 nM
15,Cn1c(/C=C2\SC(=S)N(C3CC4CCC3C4)C2=O)cc(C#CCCCOC(=O)[C@H](CC(N)=O)NC(=O)OC(C)(C)C)c1-c1ccc(Cl)cc1 (some centres unmarked) [Compound 272],< 100 nM
16,COc1cc(OC)cc(-c2cc(CCCCCO)c(/C=C3\SC(=S)N(C4C5CC6CC(C5)CC4C6)C3=O)o2)c1 (centres unmarked) [Compound 110],< 100 nM
17,COc1cc(OC)cc(-c2cc(CCCOC(=O)[C@@H](NC(=O)OC(C)(C)C)c3ccccc3)c(/C=C3\SC(=S)N(C4CC5CCC4C5)C3=O)o2)c1 (some centres unmarked) [Compound 146],< 100 nM
18,COc1cc(OC)cc(-c2cc(CCCN3CCNCC3)c(/C=C3\SC(=S)N(C4CC5CCC4C5)C3=O)o2)c1 (centres unmarked) [Compound 188],< 100 nM
19,COc1cc(OC)cc(-c2cc(CCCCCOC(=O)[C@H](CC(N)=O)NC(=O)OC(C)(C)C)c(/C=C3\SC(=S)N(C4CC5CCC4C5)C3=O)o2)c1 (some centres unmarked) [Compound 150],< 100 nM
20,O=C1/C(=C/c2ccc(-c3ccc(Cl)cc3)o2)SC(=S)N1C1CCCCC1 [Compound 47],< 100 nM
21,COc1cc(OCC(=O)N2CCC[C@H]2C(=O)O)cc(-c2cc(CCCO)c(/C=C3\SC(=S)N(C4CC5CCC4C5)C3=O)o2)c1 (some centres unmarked) [Compound 350],< 100 nM

row,Structure (SMILES),EC50
1,O=C1/C(=C/c2cc(C#CCCCO)c(-c3ccc(Cl)cc3)s2)SC(=S)N1C1C2CC3CC(C2)CC1C3 (centres unmarked) [Compound 287],< 100 nM
2,CC(C)(C)OC(=O)N[C@@H](CC(N)=O)C(=O)OCCCc1cc(-c2ccc(Cl)cc2)[nH]c1/C=C1\SC(=S)N(C2C3CC4CC(C3)CC2C4)C1=O (some centres unmarked) [Compound 253],< 100 nM
3,COc1cccc(-c2cc(CCCCCO)c(/C=C3\SC(=S)N(C4CC5CCC4C5)C3=O)s2)c1 (centres unmarked) [Compound 280],< 100 nM
4,COC(=O)COc1ccc2c(O)c(-c3ccc(/C=C4\SC(=S)N(C5C6CC7CC(C6)CC5C7)C4=O)o3)c(=O)oc2c1 (centres unmarked) [Compound 319],< 100 nM
5,COc1ccc(-c2ccc(/C=C3\SC(=S)N(C4CC5CCC4C5)C3=O)o2)cc1C(=O)N[C@@H](CC(C)C)C(=O)O (some centres unmarked) [Compound 87],< 100 nM
6,O=C1/C(=C/c2cn(-c3ccc([N+](=O)[O-])cc3)cn2)SC(=S)N1C1CCCCCC1 [Compound 63],250 to 1000 nM
7,COc1cc(C)c(-c2ccc(/C=C3\SC(=S)N(C4CCCCCCC4)C3=O)o2)cc1C [Compound 49],< 100 nM
8,COc1ccc2oc(=O)c(-c3ccc(/C=C4\SC(=S)N(C5CC6CCC5C6)C4=O)o3)c(O)c2c1 (centres unmarked) [Compound 69],100 to 250 nM
9,COc1cc(OC)cc(-c2cc(CCCN3CCNCC3)c(/C=C3\SC(=S)N(C4C5CC6CC(C5)CC4C6)C3=O)o2)c1 (centres unmarked) [Compound 190],< 100 nM
10,COc1cc(OC)cc(-c2cc(CCCNC(=O)[C@H](Cc3cn(C(c4ccccc4)(c4ccccc4)c4ccccc4)cn3)NC(=O)OCC3c4ccccc4-c4ccccc43)c(/C=C3\SC(=S)N(C4CC5CCC4C5)C3=O)o2)c1 (some centres unmarked) [Compound 161],< 100 nM
11,COC(=O)c1cc(-c2ccc(/C=C3\SC(=S)N(C4CC5CCC4C5)C3=O)o2)ccc1OC (centres unmarked) [Compound 14],< 100 nM
12,O=C1/C(=C/c2sc(-c3ccc(Cl)cc3)cc2CCCCCO)SC(=S)N1C1C2CC3CC(C2)CC1C3 (centres unmarked) [Compound 281],< 100 nM
13,O=C1/C(=C/c2oc(-c3ccc(Cl)cc3)cc2CCCN2CCNCC2)SC(=S)N1C1C2CC3CC(C2)CC1C3 (centres unmarked) [Compound 191],< 100 nM
14,COc1cc(OC)cc(-c2cc(CCCO)c(/C=C3\SC(=S)N(C4CC5CCC4C5)C3=O)o2)c1 (centres unmarked) [Compound 96],< 100 nM
15,COc1cccc(-c2cc(CCCO)c(/C=C3\SC(=S)N(C4C5CC6CC(C5)CC4C6)C3=O)o2)c1 (centres unmarked) [Compound 352],< 100 nM
16,O=C1/C(=C/c2oc(-c3ccc(F)cc3)cc2CCCCCCO)SC(=S)N1C1CC2CCC1C2 (centres unmarked) [Compound 107],< 100 nM
17,Cn1c(-c2ccc(Cl)cc2)cc(CCCO)c1/C=C1\SC(=S)N(C2C3CC4CC(C3)CC2C4)C1=O (centres unmarked) [Compound 259],> 1000 nM
18,COc1cc(OC)cc(-c2cc(CCCNC(=O)[C@@H](NC(=O)OC(C)(C)C)c3ccccc3)c(/C=C3\SC(=S)N(C4CC5CCC4C5)C3=O)o2)c1 (some centres unmarked) [Compound 162],< 100 nM
19,COc1cccc(-c2cc(CCCCCO)c(/C=C3\SC(=S)N(C4CC5CCC4C5)C3=O)n2C)c1 (centres unmarked) [Compound 262],> 1000 nM
20,O=C1/C(=C/c2cc(C#CCCCO)c(-c3ccc(Cl)cc3)s2)SC(=S)N1C1CC2CCC1C2 (centres unmarked) [Compound 288],< 100 nM
21,COc1ccc2c(O)c(-c3ccc(/C=C4\SC(=S)N(C5CC6CCC5C6)C4=O)o3)c(=O)oc2c1OC (centres unmarked) [Compound 71],100 to 250 nM

row,Structure (SMILES),EC50
1,COc1cc(-c2ccc(/C=C3\SC(=S)N(C4CC5CCC4C5)C3=O)o2)cc(OC)c1OC (centres unmarked) [Compound 2],< 100 nM
2,O=C1/C(=C/c2ccc(-c3c(O)c4cc(OCc5ccc(Cl)cc5)ccc4oc3=O)o2)SC(=S)N1C1CC2CCC1C2 (centres unmarked) [Compound 321],< 100 nM
3,O=C1/C(=C/c2sc(-c3ccc(Cl)cc3)cc2C#CCCCO)SC(=S)N1C1C2CC3CC(C2)CC1C3 (centres unmarked) [Compound 290],< 100 nM
4,COc1cc(OC)cc(-c2cc(CCCNC(=O)[C@@H]3CCCN3)c(/C=C3\SC(=S)N(C4CC5CCC4C5)C3=O)o2)c1 (some centres unmarked) [Compound 172],< 100 nM
5,"CCOC(=O)/C=C/c1ccc(/C=C2\SC(=S)N(C3C4CC5CC(C4)CC3C5)C2=O)o1 (centres unmarked) [Compound 223, (E)-Ethyl 3-(5-((Z)-(3-(adamantan-2-yl)-4-oxo-2-thioxothiazolidin-5-ylidene)methyl)furan-2-yl)acrylate]",< 100 nM
6,COc1ccc(-c2ccc(/C=C3\SC(=S)N(C4CC5CCC4C5)C3=O)o2)cc1OCC(=O)O (centres unmarked) [Compound 35],< 100 nM
7,COc1cc(OC)cc(-c2cc(CCCOC(C)=O)c(/C=C3\SC(=S)N(C4C5CC6CC(C5)CC4C6)C3=O)o2)c1 (centres unmarked) [Compound 98],< 100 nM
8,O=C1/C(=C/c2oc(-c3ccc(F)cc3)cc2CCCN2CCOCC2)SC(=S)N1C1C2CC3CC(C2)CC1C3 (centres unmarked) [Compound 183],< 100 nM
9,O=C1/C(=C/c2oc(-c3cccc(F)c3)cc2CCCCCO)SC(=S)N1C1C2CC3CC(C2)CC1C3 (centres unmarked) [Compound 344],< 100 nM
10,O=C1/C(=C/c2ccc(-c3c(O)c4ccc(OC5CCCCC5)cc4oc3=O)o2)SC(=S)N1C1CC2CCC1C2 (centres unmarked) [Compound 323],< 100 nM
11,COCOc1cc(-c2ccc(/C=C3\SC(=S)N(C4CC5CCC4C5)C3=O)o2)cc(OC)c1OC (centres unmarked) [Compound 27],< 100 nM
12,COc1cccc(-c2c(C#CCCCO)cc(/C=C3\SC(=S)N(C4CC5CCC4C5)C3=O)n2C)c1 (centres unmarked) [Compound 266],< 100 nM
13,CCOc1ccc(F)c(F)c1-c1ccc(/C=C2\SC(=S)N(C3CCCC3)C2=O)o1 [Compound 50],< 100 nM
14,COc1cc(OC)cc(-c2cc(CCCCCCO)c(/C=C3\SC(=S)N(C4CC5CCC4C5)C3=O)o2)c1 (centres unmarked) [Compound 111],< 100 nM
15,COc1cc(COc2ccc3oc(=O)c(-c4ccc(/C=C5\SC(=S)N(C6CC7CCC6C7)C5=O)s4)c(O)c3c2)cc(OC)c1 (centres unmarked) [Compound 315],< 100 nM
16,N=C(N)NCCCc1cc(-c2ccc(Cl)cc2)oc1/C=C1\SC(=S)N(C2CC3CCC2C3)C1=O (centres unmarked) [Compound 197],< 100 nM
17,COc1cccc(-c2cc(CCCCCO)c(/C=C3\SC(=S)N(C4C5CC6CC(C5)CC4C6)C3=O)[nH]2)c1 (centres unmarked) [Compound 237],< 100 nM
18,COc1cc(OC)cc(-c2cc(CCCCCOC(=O)[C@]3(O)C[C@@H](O)[C@@H](O)[C@H](O)C3)c(/C=C3\SC(=S)N(C4CC5CCC4C5)C3=O)o2)c1 (some centres unmarked) [Compound 356],< 100 nM
19,COc1cc(OC)cc(-c2cc(CCCC(C(=O)O)C(=O)O)c(/C=C3\SC(=S)N(C4CC5CCC4C5)C3=O)o2)c1 (centres unmarked) [Compound 134],< 100 nM
20,Nc1ccc(-c2ccc(/C=C3\SC(=S)N(C4C5CC6CC(C5)CC4C6)C3=O)o2)cc1 (centres unmarked) [Compound 12],< 100 nM

# — patent publication US8933075B2, “Compounds useful as antiviral agents, compositions, and methods of use” (priority 2010, dated 2015)
